Reference: ChEMBL document CHEMBL3352522 (Bioorg Med Chem Lett, 2014)
pEC50, pIC50: −log10 of the molar value. The source made the active and inactive calls. No cut-off for these calls is given here.

How the values were obtained:
[1] = target: T1, Peroxisome proliferator-activated receptor alpha (Homo sapiens, UniProt Q07869); assay: Activation of human PPARalpha ligand binding domain expressed in COS7 cells by luciferase reporter gene assay; type: cell-based, COS-7
T1 sequence (Q07869 whole entry): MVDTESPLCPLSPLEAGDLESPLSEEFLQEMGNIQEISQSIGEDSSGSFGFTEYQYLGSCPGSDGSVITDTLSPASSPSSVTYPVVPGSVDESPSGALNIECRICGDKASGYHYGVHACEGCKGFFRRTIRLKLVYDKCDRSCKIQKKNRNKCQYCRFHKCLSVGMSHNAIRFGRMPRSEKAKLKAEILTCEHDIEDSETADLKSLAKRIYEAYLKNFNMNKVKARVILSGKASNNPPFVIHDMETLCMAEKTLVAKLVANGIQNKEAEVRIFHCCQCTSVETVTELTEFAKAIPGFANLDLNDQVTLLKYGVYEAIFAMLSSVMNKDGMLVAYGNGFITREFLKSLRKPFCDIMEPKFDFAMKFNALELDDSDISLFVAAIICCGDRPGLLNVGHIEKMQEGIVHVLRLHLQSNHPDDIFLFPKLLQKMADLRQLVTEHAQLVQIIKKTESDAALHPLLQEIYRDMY

[2] = target: T2, Peroxisome proliferator-activated receptor alpha (Homo sapiens) (UniProt Q07869); assay: Activation of human PPARalpha ligand binding domain expressed in COS7 cells by luciferase reporter gene assay relative to GW7647; type: cell-based; design: concentration or dose not given beside the values; conditions: COS-7
T2 sequence (whole entry): T1 sequence (Q07869 whole entry)

[3] = target: T3, Peroxisome proliferator-activated receptor delta (Homo sapiens) (UniProt Q03181); assay: Activation of human PPARbeta ligand binding domain expressed in COS7 cells assessed as residual activity at 10 uM by luciferase reporter gene assay; type: cell-based; conditions: COS-7
T3 sequence (whole entry): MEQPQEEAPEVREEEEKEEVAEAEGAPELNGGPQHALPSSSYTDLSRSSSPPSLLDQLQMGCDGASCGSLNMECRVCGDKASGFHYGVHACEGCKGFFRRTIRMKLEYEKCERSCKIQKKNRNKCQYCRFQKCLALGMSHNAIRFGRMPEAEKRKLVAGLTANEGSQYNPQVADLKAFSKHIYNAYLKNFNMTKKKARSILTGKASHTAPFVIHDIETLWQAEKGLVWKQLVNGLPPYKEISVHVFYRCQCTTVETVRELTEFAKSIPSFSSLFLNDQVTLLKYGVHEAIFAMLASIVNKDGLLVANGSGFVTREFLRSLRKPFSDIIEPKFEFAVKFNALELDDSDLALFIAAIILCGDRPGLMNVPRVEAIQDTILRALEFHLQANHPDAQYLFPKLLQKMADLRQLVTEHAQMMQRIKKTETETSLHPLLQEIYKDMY

[4] = target: T4, Peroxisome proliferator-activated receptor gamma (Homo sapiens, UniProt P37231); assay: Activation of human PPARgamma ligand binding domain expressed in COS7 cells by luciferase reporter gene assay; type: cell-based, COS-7
T4 sequence (P37231 whole entry): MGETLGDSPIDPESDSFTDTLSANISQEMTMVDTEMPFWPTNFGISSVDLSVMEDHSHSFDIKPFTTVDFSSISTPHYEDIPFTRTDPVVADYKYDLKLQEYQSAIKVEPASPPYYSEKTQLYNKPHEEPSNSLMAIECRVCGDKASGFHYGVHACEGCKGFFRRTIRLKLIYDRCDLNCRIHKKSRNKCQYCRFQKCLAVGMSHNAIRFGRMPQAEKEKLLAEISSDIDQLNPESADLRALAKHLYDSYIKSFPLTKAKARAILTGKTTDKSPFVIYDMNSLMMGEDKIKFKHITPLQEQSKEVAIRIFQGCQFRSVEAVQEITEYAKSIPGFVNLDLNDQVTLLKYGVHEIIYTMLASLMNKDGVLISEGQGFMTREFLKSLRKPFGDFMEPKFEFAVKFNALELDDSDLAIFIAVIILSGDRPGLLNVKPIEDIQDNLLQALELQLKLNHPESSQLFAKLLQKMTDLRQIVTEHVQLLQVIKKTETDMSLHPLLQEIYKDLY

[5] = target: T5, Peroxisome proliferator-activated receptor gamma (Homo sapiens) (UniProt P37231); assay: Activation of human PPARgamma ligand binding domain expressed in COS7 cells by luciferase reporter gene assay relative to pioglitazone; type: cell-based; design: concentration or dose not given beside the values; conditions: COS-7
T5 sequence (whole entry): T4 sequence (P37231 whole entry)

[6] = target: T3, Peroxisome proliferator-activated receptor delta (Homo sapiens); assay: Activation of human PPARbeta ligand binding domain expressed in COS7 cells assessed as residual activity at 3 uM by luciferase reporter gene assay; type: cell-based; conditions: COS-7
[7] = target: T2, Peroxisome proliferator-activated receptor alpha (Homo sapiens); assay: Activation of human PPARalpha ligand binding domain expressed in COS7 cells assessed as residual activity at 10 uM by luciferase reporter gene assay relative to GW7647; type: cell-based; conditions: COS-7
[8] = target: T5, Peroxisome proliferator-activated receptor gamma (Homo sapiens); assay: Activation of human PPARgamma ligand binding domain expressed in COS7 cells assessed as residual activity at 10 uM by luciferase reporter gene assay relative to pioglitazone; type: cell-based; conditions: COS-7
[9] = target: T2, Peroxisome proliferator-activated receptor alpha (Homo sapiens); assay: Activation of human PPARalpha ligand binding domain expressed in COS7 cells assessed as residual activity at 6 uM by luciferase reporter gene assay relative to GW7647; type: cell-based; conditions: COS-7
[10] = target: T2, Peroxisome proliferator-activated receptor alpha (Homo sapiens); assay: Activation of human PPARalpha ligand binding domain expressed in COS7 cells assessed as residual activity at 3 uM by luciferase reporter gene assay relative to GW7647; type: cell-based; conditions: COS-7
[11] = target: T6, Polyunsaturated fatty acid 5-lipoxygenase (Homo sapiens, UniProt P09917); assay: Inhibition of 5-LOX in human PMNL cells assessed as reduction in 5-LOX product formation pre-incubated for 15 mins by HPLC method; type: cell-based
T6 sequence (P09917 whole entry): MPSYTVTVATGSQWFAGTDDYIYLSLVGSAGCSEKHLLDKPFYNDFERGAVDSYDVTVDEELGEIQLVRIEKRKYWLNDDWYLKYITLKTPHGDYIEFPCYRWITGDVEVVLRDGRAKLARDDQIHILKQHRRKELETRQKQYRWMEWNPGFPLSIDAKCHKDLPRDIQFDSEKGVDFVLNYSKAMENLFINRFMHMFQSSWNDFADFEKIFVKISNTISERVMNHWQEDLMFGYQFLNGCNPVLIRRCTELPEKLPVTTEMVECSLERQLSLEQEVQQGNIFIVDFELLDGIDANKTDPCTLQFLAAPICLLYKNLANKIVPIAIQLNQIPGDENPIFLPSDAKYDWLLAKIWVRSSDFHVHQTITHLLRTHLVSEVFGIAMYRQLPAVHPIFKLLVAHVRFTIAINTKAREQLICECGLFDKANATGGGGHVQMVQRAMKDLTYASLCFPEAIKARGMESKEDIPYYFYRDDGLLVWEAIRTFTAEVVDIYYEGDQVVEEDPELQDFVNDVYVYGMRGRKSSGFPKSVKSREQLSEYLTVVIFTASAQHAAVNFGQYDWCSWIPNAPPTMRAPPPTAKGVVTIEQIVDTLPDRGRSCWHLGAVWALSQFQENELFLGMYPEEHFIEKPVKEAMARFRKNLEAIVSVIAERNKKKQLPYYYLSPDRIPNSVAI

[12] = target: T6, Polyunsaturated fatty acid 5-lipoxygenase; assay: Inhibition of 5-LOX in human PMNL cells assessed as reduction in 5-LOX product formation pre-incubated for 15 mins by HPLC based cell-free assay
[13] = target: T7, Prostaglandin E synthase (Homo sapiens, UniProt O14684); assay: Inhibition of mPGES-1 in human A549 cells microsomes assessed as reduction in PGE2 formation by RP-HPLC assay; type: cell-based
T7 sequence (O14684 whole entry): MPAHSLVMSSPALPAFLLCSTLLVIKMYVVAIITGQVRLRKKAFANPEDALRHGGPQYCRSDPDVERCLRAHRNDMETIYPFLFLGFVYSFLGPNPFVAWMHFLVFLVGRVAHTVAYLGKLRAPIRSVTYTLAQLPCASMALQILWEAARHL

pEC50 [1]	Activity [2] [%]	Activity [3]	pEC50 [4]	Activity [5] [%]	also measured	Structure (SMILES)
5.54	89.4	inactive	5.47	130	–	CCCCCCC(Sc1nc(Cl)cc(Nc2nc(-c3ccc([N+](=O)[O-])cc3)cs2)n1)C(=O)O (centres undefined)
5.24	70	inactive	5.54	94	–	CCCCCCC(Sc1nc(Cl)cc(Nc2nc(-c3ccc(F)c(F)c3)cs2)n1)C(=O)O (centres undefined)
5.19	57	inactive	5.12	136	–	CCCCC(Sc1nc(Cl)cc(Nc2nc(-c3ccc(Cl)cc3)cs2)n1)C(=O)O (centres undefined)
5.41	102	–	5.42	144	Activity [6]: inactive	CCCCCCC(Sc1nc(Cl)cc(Nc2nc(-c3ccc(Br)cc3)c(C)s2)n1)C(=O)O (centres undefined)
–	–	inactive	–	–	Activity [7]: 24.7%; Activity [8]: 63%	O=C(O)CSc1nc(Cl)cc(Nc2nc(-c3ccc(Cl)cc3)cs2)n1
5.27	229	–	5.43	86	Activity [6]: inactive	CCCCCCC(Sc1nc(Cl)cc(Nc2nc3c(s2)CCc2cc(OC)ccc2-3)n1)C(=O)O (centres undefined)
–	–	inactive	5.44	145	Activity [7]: 18%	CCCCCCC(Sc1nc(Cl)cc(Nc2nc(-c3ccc(F)cc3F)cs2)n1)C(=O)O (centres undefined)
5.09	125	inactive	5.14	139	–	CCCCCCC(Sc1nc(Cl)cc(Nc2nc(-c3ccc(C)cc3)cs2)n1)C(=O)O (centres undefined)
5.18	57	inactive	5.19	90	–	CCCCCCC(Sc1nc(Cl)cc(Nc2nc(-c3ccc(Cl)cc3)cs2)n1)C(=O)O (centres undefined)
–	–	–	–	–	pIC50 [1]: 6.00; pIC50 [4]: 5.44	CCCCCCC(Sc1nc(Cl)cc(Nc2cccc(C)c2C)n1)C(=O)O (centres undefined)
–	–	inactive	5.89	78	Activity [9]: 37%	CCCCCCC(Sc1nc(Cl)cc(Nc2nc(-c3ccc4ccccc4c3)cs2)n1)C(=O)O (centres undefined)
–	–	–	5.39	107	Activity [10]: 52.9%; Activity [6]: inactive	CCCCCCC(Sc1nc(Cl)cc(Nc2nc(-c3ccc4c(c3)CCCC4)cs2)n1)C(=O)O (centres undefined)
–	–	–	–	–	pIC50 [1]: 5.66; pIC50 [4]: 5.46	CCCCCCC(Sc1nc(Cl)cc(Nc2ccc3ncccc3c2)n1)C(=O)O (centres undefined)
–	–	–	–	–	pIC50 [1]: 6.72; pIC50 [4]: 5.82	CCCCCCC(Sc1nc(Cl)cc(Nc2ccc(-c3ccc(C#N)cc3)cc2)n1)C(=O)O (centres undefined)
–	–	inactive	5.64	99	Activity [9]: 23%	CCCCCCC(Sc1nc(Cl)cc(Nc2nc(-c3ccccc3)c(C)s2)n1)C(=O)O (centres undefined)
–	–	inactive	–	–	pIC50 [11]: < 5.00; pIC50 [12]: < 5.00; pIC50 [13]: < 5.00; Activity [7]: inactive; Activity [8]: inactive	CCCCCCC(Sc1nc(Cl)cc(Nc2nc(-c3ccc(C(=O)O)cc3)cs2)n1)C(=O)O (centres undefined)
5.44	51	inactive	5.41	95	–	CCC(Sc1nc(Cl)cc(Nc2nc(-c3ccc(Cl)cc3)cs2)n1)C(=O)O (centres undefined)
–	–	–	–	–	inhibition [7]: inactive; pIC50 [4]: 5.43	O=C(O)CSc1nc(OCCc2ccccc2)cc(OCCc2ccccc2)n1
–	–	inactive	5.24	108	Activity [9]: 55.4%	CCCCCCC(Sc1nc(Cl)cc(Nc2nc(-c3ccccc3)cs2)n1)C(=O)O (centres undefined)
–	–	–	–	–	inhibition [7]: inactive; pIC50 [4]: 5.21	Cc1cccc(Nc2cc(Cl)nc(SC(C(=O)O)c3cccc4ccccc34)n2)c1C (centres undefined)
